In US20240287138A1, “CYCLIC PEPTIDES FOR INHIBITING TNF RECEPTOR 1 ACTIVITY” (Merck Sharp & Dohme LLC, priority 2023, published 2024):
Numbered stars: 1 amine (or outer) side, 2 acyl side, 3 side chain; on linkers, the order of the positions; unused ones are H or OH. Bridge positions count the residues as written; N and C are the ends. Square brackets hold non-standard residues; d marks the D form. Peptide text beside a SMILES is read from it. * marks the point of attachment. Trp(βS-Me,7-OMe) = COc1cccc2c([C@H](C)[C@H](N)C(=O)O)c[nH]c12; Phe(4-SO2NH2) = N[C@@H](Cc1ccc(S(N)(=O)=O)cc1)C(=O)O; Ala(indazol-1-yl) = N[C@@H](Cn1ncc2ccccc21)C(=O)O; Trp(7-CN) = N#Cc1cccc2c(C[C@H](N)C(=O)O)c[nH]c12; Trp(7-Cl) = N[C@@H](Cc1c[nH]c2c(Cl)cccc12)C(=O)O; Phe(4-CONH2) = NC(=O)c1ccc(C[C@H](N)C(=O)O)cc1; Phe(4-COOH) = N[C@@H](Cc1ccc(C(=O)O)cc1)C(=O)O; Trp(7-aza) = N[C@@H](Cc1c[nH]c2ncccc12)C(=O)O; Phe(4-CH2NH2) = NCc1ccc(C[C@H](N)C(=O)O)cc1; Pip(5R-OH) = O=C(O)[C@@H]1CC[C@@H](O)CN1; X1 = O=C([C@@H]1CC[C@H](N[*:1])C1)[*:2]; Pip(4-aza) = O=C(O)[C@@H]1CNCCN1; 4Pal = N[C@@H](Cc1ccncc1)C(=O)O; NMeE = CN[C@@H](CCC(=O)O)C(=O)O; dHyp = O=C(O)[C@H]1C[C@H](O)CN1; Pip = O=C(O)[C@@H]1CCCCN1; αMeS = C[C@](N)(CO)C(=O)O; Carboxymethyl = O=C(O)C*; Nle = CCCC[C@H](N)C(=O)O; Nme = COCCNCC(=O)O; Sar = CNCC(=O)O

What was measured:
human TNFR2 ECD protein = biological target: T1, human TNFR2 ECD protein (Homo sapiens, UniProt P20333); assay: SPR off-target binding (selectivity) to human TNFR2 ECD
T1 construct: HRV 3C protease cleavage site (C); 6His (C, cleaved yes); made in house; host or cells: Sf21 insect cells (baculovirus), secreted
T1 sequence (P20333 23-257): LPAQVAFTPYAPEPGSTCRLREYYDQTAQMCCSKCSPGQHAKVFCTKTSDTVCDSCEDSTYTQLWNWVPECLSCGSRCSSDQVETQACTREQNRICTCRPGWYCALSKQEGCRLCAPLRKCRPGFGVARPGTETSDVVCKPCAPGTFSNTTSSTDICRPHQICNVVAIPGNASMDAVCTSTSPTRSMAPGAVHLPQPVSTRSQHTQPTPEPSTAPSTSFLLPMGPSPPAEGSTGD
Description: (§1) B. Procedure for Binding Affinity and Selectivity measured by SPR
(§2) Affinity and selectivity for hTNFR1 and TNFR2 was determined using SPR. Human TNFR1 or TNFR2 genes (extracellular domain only) were synthesized with a C-terminal Avi-tag, HRV 3C protease cleavage site followed by a 6His-tag for affinity purification. The final gene product was cloned into pBAC™-1 vector (Millipore Sigma) for expression testing in insect cells. Constructs were transfected into Sf21 cells for baculovirus generation followed by protein expression analysis in Sf21 and Tni cell lines. Large scale expression in Sf21 cells was performed using baculovirus infected insect cells (BIICs) infected at a MOI=2.0 grown for 72 h. Target proteins secreted into the media were harvested via centrifugation and concentrated using diafiltration. TNFR was purified by immobilized metal ion affinity chromatography (IMAC) using a Ni-Sepharose HisTrap™ column (Cytiva™). Isolated TNFR had His tag removed using HRV 3C protease followed by additional purification using Ni-NTA chromatography. Biotinylation was performed on Ni-NTA flow-through fractions concentrated to 45 μM and treated with BirA ligase (1:100, μg/μg ratio) in 50 mM Tris pH 7.5, 150 mM NaCl, 50 μM biotin, 10 mM magnesium acetate, 10 mM ATP at 4° C. for 20 h. Final purification of biotin-TNFR and buffer exchange into 20 mM HEPES pH 7.5, 150 mM NaCl was performed using a HiLoad® Superdex® 200 26/60 column (Cytiva™). Highly purified protein was aliquoted and stored at −80° C.
(§3) The SPR assay uses a Cytiva™ 8K or 8K+ biosensor instrument to measure the kinetics of peptide analytes binding to captured human TNFR1 extracellular domain (ECD) protein; peptide analytes are also evaluated for any off-target binding to human TNFR2 ECD protein in parallel. Recombinant human TNFR1 ECD and human TNFR2 ECD proteins, biotinylated via engineered C-terminal avi-tags, are immobilized to a regenerable streptavidin biosensor chip surface (Cytiva™ Biotin CAPture kit, Series S; cat. #28920234). Peptide analytes binding to immobilized human TNFR1 ECD protein and their subsequent dissociation are conducted in a buffer of 10 mM HEPES pH 7.4, 150 mM NaCl, 3 mM EDTA, 0.05% P20,2% DMSO under laminar flow conditions and measured in response units (RU), which are directly proportional to the accumulated mass on the surface of the biosensor chip; the biosensor chip surface is regenerated via Cytiva™ proprietary methods between the evaluation of each peptide analyte. […] The SPR assay determines the association and dissociation rate constants, kon and koff, for each peptide analyte and, from these values, calculates the binding affinity, […] reported in Table 2.

[1] = biological target: T2, TNFα-induced NF-κB signal transduction pathway (TNFR1 signaling) in THP-1 cells (Homo sapiens, UniProt P19438); assay: THP-1 Lucia NF-κB reporter cell assay, inhibition of TNFα-induced NF-κB signaling; assay type: cell-based; details: THP-1 NF-κB Lucia reporter cells, 10 ng/mL TNFα, 16-18 h, secreted luciferase; read-out: THP-1 IC50
T2 sequence (P19438 30-455): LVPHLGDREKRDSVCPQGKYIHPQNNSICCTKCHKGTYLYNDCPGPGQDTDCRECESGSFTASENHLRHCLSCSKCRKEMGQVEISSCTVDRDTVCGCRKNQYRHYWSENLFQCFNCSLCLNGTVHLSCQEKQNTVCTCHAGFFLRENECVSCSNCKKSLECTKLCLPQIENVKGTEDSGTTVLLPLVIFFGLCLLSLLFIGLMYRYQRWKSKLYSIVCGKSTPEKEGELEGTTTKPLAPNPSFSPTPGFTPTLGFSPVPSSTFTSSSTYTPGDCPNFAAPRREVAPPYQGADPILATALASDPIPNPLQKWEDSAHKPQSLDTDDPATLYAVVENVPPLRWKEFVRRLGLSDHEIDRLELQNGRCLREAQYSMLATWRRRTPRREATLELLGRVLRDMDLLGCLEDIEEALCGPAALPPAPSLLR
Summary of the method: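 THP-1 Lucia NF-κB cells, 20k/well, no selection antibiotics; peptide pre-inc 1 h 37 °C; + recombinant human TNFα 10 ng/mL final; o.n.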

[2] = biological target: T3, human TNFR1 extracellular domain (ECD) protein (Homo sapiens, UniProt P19438); assay: SPR binding affinity to captured human TNFR1 ECD
T3 construct: HRV 3C protease cleavage site (C); 6His (C, cleaved yes); made in house; host or cells: Sf21 insect cells (baculovirus), secreted
T3 sequence (P19438 30-211): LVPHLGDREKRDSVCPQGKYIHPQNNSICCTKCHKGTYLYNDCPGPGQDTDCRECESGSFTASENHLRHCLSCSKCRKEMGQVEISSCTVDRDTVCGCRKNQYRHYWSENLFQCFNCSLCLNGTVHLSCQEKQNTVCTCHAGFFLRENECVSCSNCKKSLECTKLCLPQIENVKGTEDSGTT
Description: as §1, §2, §3

[3] = biological target: T4, human soluble TNFR1 (sTNFR1) (Homo sapiens, UniProt P19438); assay: Human sTNFR1-peptide displacement assay (LanthaScreen Eu TR-FRET binding assay)
T4 construct: made in house; host or cells: Sf21 (baculovirus)
T4 sequence (P19438 with tags, fused parts or gaps): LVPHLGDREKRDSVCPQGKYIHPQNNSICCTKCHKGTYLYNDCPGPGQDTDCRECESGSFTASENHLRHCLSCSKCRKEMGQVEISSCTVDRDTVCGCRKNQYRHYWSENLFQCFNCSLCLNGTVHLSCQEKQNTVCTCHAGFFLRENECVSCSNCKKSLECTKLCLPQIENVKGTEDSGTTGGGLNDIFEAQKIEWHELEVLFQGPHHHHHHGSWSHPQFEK
Summary of the method: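 Readout is the 665/615 nm TR-FRET ratio (Eu anti-His donor, streptavidin-Alexa647 acceptor), normalized to DMSO and saturating displacer, fit by Morrison-based five-parameter logistic for Kd^app. His-tagged sTNFR1 (1-211) prebound to 100 nM biotinylated peptide SEQ ID NO.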

SMILES	Kd (human TNFR2 ECD protein) [nM]	IC50 [1] [nM]	Kd [2] [nM]	Kd [3] [nM]
CCCC[C@@H]1NC(=O)CSC[C@@H](C(N)=O)NC(=O)[C@H]([C@@H](C)c2c[nH]c3c(OC)cccc23)NC(=O)CN(C)C(=O)[C@H](Cc2ccc(O)cc2)NC(=O)[C@H](Cc2ccc(C(=O)O)cc2)NC(=O)[C@](C)(CO)NC(=O)[C@H](Cc2c[nH]c3c(Cl)cccc23)NC(=O)[C@H](Cc2ccc(CN)cc2)NC(=O)[C@H](CC(N)=O)NC(=O)[C@H](CCC(=O)O)N(C)C(=O)[C@H](Cc2c[nH]c3ccccc23)NC(=O)[C@@H]2CC[C@@H](O)CN2C(=O)[C@H](Cc2ccncc2)NC1=O [SEQ ID NO. 96] ({CH2CO}-[Nle][4Pal][Pip(5R-OH)]W[NMeE]N[Phe(4-CH2NH2)][Trp(7-Cl)][αMeS][Phe(4-COOH)]Y[Sar][Trp(βS-Me,7-OMe)]C-NH2; thioether N-14)	> 1000	1.6	–	–
CCCC[C@@H]1NC(=O)CSC[C@@H](C(N)=O)NC(=O)[C@H]([C@@H](C)c2c[nH]c3c(OC)cccc23)NC(=O)CN(C)C(=O)[C@H](Cc2ccc(C(N)=O)cc2)NC(=O)[C@H](Cc2ccc(C(=O)O)cc2)NC(=O)[C@](C)(CO)NC(=O)[C@H](Cc2c[nH]c3c(Cl)cccc23)NC(=O)[C@H](Cc2ccncc2)NC(=O)[C@H](CC(N)=O)NC(=O)[C@H](CCC(=O)O)N(C)C(=O)[C@H](Cc2c[nH]c3ccccc23)NC(=O)[C@@H]2CNCCN2C(=O)[C@H](Cc2ccncc2)NC1=O [SEQ ID NO. 124] ({CH2CO}-[Nle][4Pal][Pip(4-aza)]W[NMeE]N[4Pal][Trp(7-Cl)][αMeS][Phe(4-COOH)][Phe(4-CONH2)][Sar][Trp(βS-Me,7-OMe)]C-NH2; thioether N-14)	> 1000	–	0.12	–
CCCC[C@@H]1NC(=O)CSC[C@@H](C(N)=O)NC(=O)[C@H]([C@@H](C)c2c[nH]c3c(OC)cccc23)NC(=O)CN(C)C(=O)[C@H](Cc2ccc(O)cc2)NC(=O)[C@H](Cc2ccc(C(=O)O)cc2)NC(=O)[C@](C)(CO)NC(=O)[C@H](Cc2c[nH]c3c(Cl)cccc23)NC(=O)[C@H](Cc2ccncc2)NC(=O)[C@H](CC(N)=O)NC(=O)CN(CCOC)C(=O)[C@H](Cc2c[nH]c3ncccc23)NC(=O)[C@@H]2CCCCN2C(=O)[C@H](Cc2ccncc2)NC1=O [SEQ ID NO. 62] ({CH2CO}-[Nle][4Pal][Pip][Trp(7-aza)][Nme]N[4Pal][Trp(7-Cl)][αMeS][Phe(4-COOH)]Y[Sar][Trp(βS-Me,7-OMe)]C-NH2; thioether N-14)	> 1000	4.4	–	–
CCCC[C@@H]1NC(=O)[C@@H]2CC[C@@H](C2)NC(=O)[C@H]([C@@H](C)c2c[nH]c3c(OC)cccc23)NC(=O)CN(C)C(=O)[C@H](Cc2ccc(OCC(=O)O)cc2)NC(=O)[C@H](Cc2ccc(S(N)(=O)=O)cc2)NC(=O)[C@](C)(CO)NC(=O)[C@H](Cc2c[nH]c3c(C#N)cccc23)NC(=O)[C@H](Cc2ccc(OCC(=O)O)cc2)NC(=O)[C@H](CC(N)=O)NC(=O)[C@H]2C[C@H](O)CN2C(=O)[C@H](Cn2ncc3ccccc32)NC(=O)[C@@H]2CC[C@@H](O)CN2C(=O)[C@H](Cc2ccncc2)NC1=O [SEQ ID NO. 286] (cyclo([4Pal][Pip(5R-OH)][Ala(indazol-1-yl)][dHyp]NY(Carboxymethyl)[Trp(7-CN)][αMeS][Phe(4-SO2NH2)]Y(Carboxymethyl)[Sar][Trp(βS-Me,7-OMe)][X1][Nle]))	–	0.4	–	0.05
